Source: the Kinase Knowledgebase extract (Sharma et al. 2016)

target: PIK3CA (human) (UniProt P42336); assay: Assessment of PIK3CA Kinase Activity
Sequence (P42336 whole entry, looked up): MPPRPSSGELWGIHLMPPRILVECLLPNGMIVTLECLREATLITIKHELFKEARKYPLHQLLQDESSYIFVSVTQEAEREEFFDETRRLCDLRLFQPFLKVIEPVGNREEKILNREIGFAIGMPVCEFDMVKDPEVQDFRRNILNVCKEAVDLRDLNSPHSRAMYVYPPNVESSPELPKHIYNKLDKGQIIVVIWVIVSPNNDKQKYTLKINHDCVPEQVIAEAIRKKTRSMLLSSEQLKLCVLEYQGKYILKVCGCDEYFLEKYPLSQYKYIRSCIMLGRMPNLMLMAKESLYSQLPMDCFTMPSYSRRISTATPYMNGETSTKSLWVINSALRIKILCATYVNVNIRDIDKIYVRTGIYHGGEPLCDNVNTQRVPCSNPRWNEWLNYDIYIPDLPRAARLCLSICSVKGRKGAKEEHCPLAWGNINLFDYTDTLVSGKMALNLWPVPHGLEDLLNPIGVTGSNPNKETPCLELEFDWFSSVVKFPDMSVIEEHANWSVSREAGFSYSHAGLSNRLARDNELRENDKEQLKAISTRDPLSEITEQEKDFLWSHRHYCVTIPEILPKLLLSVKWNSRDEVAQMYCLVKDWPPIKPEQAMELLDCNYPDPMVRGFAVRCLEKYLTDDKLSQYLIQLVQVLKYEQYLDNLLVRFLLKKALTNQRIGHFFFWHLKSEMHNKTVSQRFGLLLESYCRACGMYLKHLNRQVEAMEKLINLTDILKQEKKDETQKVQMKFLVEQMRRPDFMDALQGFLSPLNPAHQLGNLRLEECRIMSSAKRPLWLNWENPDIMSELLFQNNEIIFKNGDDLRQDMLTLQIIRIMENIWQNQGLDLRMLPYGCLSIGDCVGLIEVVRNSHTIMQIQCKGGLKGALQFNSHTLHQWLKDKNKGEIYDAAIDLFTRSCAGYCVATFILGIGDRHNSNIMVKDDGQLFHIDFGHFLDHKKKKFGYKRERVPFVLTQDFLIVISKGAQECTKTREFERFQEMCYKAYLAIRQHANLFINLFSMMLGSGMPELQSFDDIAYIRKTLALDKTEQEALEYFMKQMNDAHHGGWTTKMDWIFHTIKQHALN

| IC50 [nM] | Structure (SMILES) |
| --- | --- |
| < 1000 | CC(C)(N)Cn1cc(-c2ccc3c(c2)OCCc2sc(-c4ncnn4CC(F)(F)F)nc2-3)cn1 |
| < 1000 | CC(C)n1ncnc1-c1nc2c(s1)CCOc1ccc(C3CCN(C(=O)[C@H](C)O)CC3)cc1-2 |
| < 1000 | CC(C)n1ncnc1-c1nc2c(s1)CCOc1cc(C3CCN(S(C)(=O)=O)CC3)ccc1-2 |
| < 1000 | CN1CC(Nc2ccc3c(n2)-c2sc(-c4ncnn4-c4ccc(F)cc4F)cc2CCO3)C1 |
| < 1000 | COCCN(C)C(=O)c1nc2c(s1)CCOc1cc(-c3cn[nH]c3)ccc1-2 |
| < 1000 | Cc1nc(-c2nc3c(s2)CCOc2cc(CNC(N)=O)ccc2-3)n(C(C)C)n1 |
| < 1000 | CN1C(=O)N(c2nc3c(s2)CCOc2cc(-c4cnn(CC(C)(C)O)c4)ccc2-3)C(C)(C)C1=O |
| < 1000 | CC(C)(O)Cn1cc(-c2ccc3c(c2)OCCc2sc(-c4nc(N)nn4-c4ccc(F)cc4F)nc2-3)cn1 |
| < 1000 | Fc1ccc(-n2ncnc2-c2cc3c(s2)-c2nc(NCCN4CCCC4)ccc2OCC3)c(F)c1 |
| < 1000 | O=C(O)CNc1ccc2c(n1)-c1sc(-c3ncnn3-c3ccc(F)cc3F)cc1CCO2 |
| < 1000 | CC(C)CCN(C)C(=O)c1nc2c(s1)CCOc1cc(-c3cn[nH]c3)ccc1-2 |
| < 1000 | CC(C)n1ncnc1-c1nc2c(s1)CCOc1ccc(-c3ccc(=O)n(C)c3)cc1-2 |
| < 1000 | CC(C)NC(=O)CN1CC(c2ccc3c(c2)OCCc2sc(-c4ncnn4C(C)C)nc2-3)C1 |
| < 1000 | CC(=O)N1CC(n2ccnc2-c2nc3c(s2)CCOc2cc(-c4cnn(CC(C)(C)O)c4)ccc2-3)C1 |
| < 1000 | CN1CCN(CCNc2ccc3c(n2)-c2sc(-c4ncnn4-c4ccc(F)cc4F)cc2CCO3)CC1 |
| < 1000 | CC(C)n1ncnc1-c1nc2c(s1)CCOc1ccc(/C=C/S(C)(=O)=O)cc1-2 |
| < 1000 | CC(C)n1cnnc1-c1nc2c(s1)CCOc1cc(CNCC(F)(F)F)ccc1-2 |
| < 1000 | CC(C)n1ncnc1-c1nc2c(s1)CCOc1ccc(-c3ccc(N4CCOCC4)nc3)cc1-2 |

| IC50 [nM] | Structure (SMILES) |
| --- | --- |
| < 1000 | O=C(c1nc2c(s1)CCOc1cc(-c3cn[nH]c3)ccc1-2)N(CCO)C1CCCCC1 |
| < 1000 | CN1CCN(C(=O)c2ccc(Cl)c(N(C)C(=O)c3cc4c(s3)-c3ccc(C(=O)NCCS(C)(=O)=O)cc3OCC4)c2)CC1 |
| < 1000 | CNC(=O)C(C)(C)N1CC(c2ccc3c(c2)OCCc2sc(-c4ncnn4C(C)C)nc2-3)C1 |
| < 1000 | CC(C)N(CCO)C(=O)c1nc2c(s1)CCOc1cc(-c3ccc(N4CCOCC4)nc3)ccc1-2 |
| < 1000 | O=C(c1nc2c(s1)CCOc1cc(-c3cn[nH]c3)ccc1-2)N1CCC(F)(F)CC1 |
| < 1000 | O=C(c1nc2c(s1)CCOc1cc(-c3cn[nH]c3)ccc1-2)N1CCCNCC1 |
| < 1000 | CC(C)(CN)n1cc(-c2ccc3c(c2)OCCc2sc(-c4ncnn4CC(F)(F)F)nc2-3)cn1 |
| < 1000 | CN(C)C(=O)c1nc2c(s1)CCOc1cc(-c3cn[nH]c3)ccc1-2 |
| < 1000 | CC(C)C[C@@H](CO)NC(=O)c1nc2c(s1)CCOc1cc(-c3cn[nH]c3)ccc1-2 |
| < 1000 | COCC(O)CN1CC(c2ccc3c(c2)OCCc2sc(-c4nc(C)nn4C(C)C)nc2-3)C1 (stereo not given) |
| < 1000 | C[C@H]1COCCN1C(=O)c1nc2c(s1)CCOc1cc(-c3cn[nH]c3)ccc1-2 |
| < 1000 | CC(C)n1ncnc1-c1nc2c(s1)CCOc1cc(C3CCN(CCO)CC3)ccc1-2 |
| < 1000 | CC(C)n1ncnc1-c1nc2c(s1)CCOc1cc(-c3cnn(CCOP(=O)(O)O)c3)ccc1-2 |
| < 1000 | Cn1cc(-c2ccc3c(n2)-c2sc(-c4ncnn4-c4ccc(F)cc4F)cc2CCO3)cn1 |
| < 1000 | CN(C)c1ccc(-c2ccc3c(n2)-c2sc(-c4ncnn4-c4ccc(F)cc4F)cc2CCO3)cn1 |
| < 1000 | CC(C)N(CCO)C(=O)c1nc2c(s1)CCOc1ccc(-c3cnn(CCO)c3)cc1-2 |
| < 1000 | CC(C)(O)Cn1cc(-c2ccc3c(c2)OCCc2sc(-c4ncnn4Cc4ccccn4)nc2-3)cn1 |
